As usually defined, the IC50 is the concentration that gives 50% inhibition.

A value given as a limit tells only on which side of the number the result lay.

The test concerns M-NFS-60 cells. Put plainly: M-NFS-60 cell in vitro assay (CCK, 48 h, M-CSF factor medium). The test is classed as cell-based. Particulars: M-NFS-60 cells; read-out: M-NFS-60cellassay IC50. The gist of the method: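 Mouse M-NFS-60 cells (2000/well) in RPMI-1640 with 10% serum and M-CSF (25 ng/ml) were pre-incubated 4 h, then exposed to DMSO-diluted compound gradients for 48 h at 5% CO2. Viability read by CCK, 2 h, OD 450 nm; IC50 from curve fitting.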
For `CN1CCC[C@H]1c1nc(Nc2cccc3c2CC[C@@H]3Nc2cnc3cn(C)nc3c2)no1` [Compound 93c], the IC50 was in the range of 50 to 200 nM.

For the compound `Cn1cc2ncc(N[C@H]3CCc4c(Nc5noc(C6(C)CC6)n5)cccc43)cc2n1` [Compound 93d], the IC50 was less than 50 nM.

`Cn1cc2ncc(N[C@H]3CCc4c(Nc5noc(C6(CO)CC6)n5)cccc43)cc2n1` [Compound 93e]: the half-inhibitory concentration (IC50) lay in the range of 50 to 200 nM.

Consider `Cn1cc2ncc(N[C@H]3CCc4c(Nc5noc(C(C)(C)C(F)(F)F)n5)cccc43)cc2n1` [Compound 93f], for which the IC50 was less than 50 nM.

As to `Cn1cc2ncc(N[C@H]3CCc4c(Nc5noc(C6(C(F)(F)F)CC6)n5)cccc43)cc2n1` [Compound 93g], the IC50 was less than 50 nM.

Consider `Cn1cc2ncc(N[C@H]3CCc4c(Nc5noc(C6(C(F)(F)F)CCC6)n5)cccc43)cc2n1` [Compound 93h], for which the IC50 was less than 50 nM.

Turning to `Cn1cc2ncc(N[C@H]3CCc4c(Nc5noc(C(C)(C)C)n5)cccc43)cc2n1` [Compound 93i], the IC50 is less than 50 nM.

`Cn1cc2ncc(N[C@H]3CCc4c(Nc5noc(C6CC6)n5)cccc43)cc2n1` [Compound 93j]: the IC50 was 200 to 500 nM.

For the compound `Cn1cc2ncc(N[C@H]3CCc4c(Nc5noc(C6CCCC6)n5)cccc43)cc2n1` [Compound 93k], the IC50 was less than 50 nM.

`Cn1cc2ncc(N[C@H]3CCc4c(Nc5noc(C6(C(F)(F)F)CCCC6)n5)cccc43)cc2n1` [Compound 93l]: the IC50 was less than 50 nM.

Consider `Cn1cc2ncc(N[C@H]3CCc4c(Nc5noc(C6(C)CCCC6)n5)cccc43)cc2n1` [Compound 93m], for which the IC50 is less than 50 nM.

For the compound `Cn1cc2ncc(N[C@H]3CCc4c(Nc5noc(C6(C)CCC6)n5)cccc43)cc2n1` [Compound 93n], the IC50 is less than 50 nM.

In the case of `Cn1cc2ncc(N[C@H]3CCc4c(Nc5noc(C(C)(C)CF)n5)cccc43)cc2n1` [Compound 93o], the concentration for half-maximal inhibition (IC50) was less than 50 nM.

For the compound `Cn1cc2ncc(N[C@H]3CCc4c(Nc5noc(C(F)(F)F)n5)cccc43)cc2n1` [Compound 93p], the IC50 was more than 500 nM.

In the case of `Cn1cc2ncc(N[C@H]3CCc4c(Nc5noc(C67CC(C6)C7)n5)cccc43)cc2n1` [Compound 93q], the IC50 is less than 50 nM.

In the case of `Cn1cc2ncc(N[C@H]3CCc4c(Nc5noc(C67CC(F)(C6)C7)n5)cccc43)cc2n1` [Compound 93r], the IC50 is less than 50 nM.

For `CN(c1cnc2cnn(C)c2c1)[C@H]1CCc2c(Nc3cc(C(C)(C)C)on3)cccc21` [Compound 94, (S)—N^4-(5-(tert-butyl)isoxazol-3-yl)-N^1-methyl-N^1-(1-methyl-1H-pyrazolo[4,3-b]pyridin-6-yl)-2,3-dihydro-1H-indene-1,4-diamine], the IC50 fell in the range of 200 to 500 nM.

For the compound `Cn1ncc2ncc(O[C@H]3CCc4c(Nc5cc(C(C)(C)C)on5)cccc43)cc21` [Compound 95, (S)-5-(tert-butyl)-N-(1-((1-methyl-1H-pyrazolo[4,3-b]pyridin-6-yl)oxy)-2,3-dihydro-1H-inden-4-yl) isoxazol-3-amine], the IC50 is 200 to 500 nM.

In the case of `Cn1cc2ncc(N[C@H]3CCc4c(CNc5cccc(C6CC6)c5)cccc43)cc2n1` [Compound 96a], the IC50 is 50 to 200 nM.

For `Cc1cccc(NCc2cccc3c2CC[C@@H]3Nc2cnc3cn(C)nc3c2)c1` [Compound 96b], the IC50 lay in the range of 50 to 200 nM.

Take `Cn1cc2ncc(N[C@H]3CCc4c(CNc5cccc(F)c5)cccc43)cc2n1` [Compound 96c]: the IC50 was more than 500 nM.

In the case of `Cn1cc2ncc(N[C@H]3CCc4c(CNc5nc(C6CC6)cs5)cccc43)cc2n1` [Compound 96d], the IC50 is more than 500 nM.

In the case of `O=C(Nc1cccc(C2CC2)c1)c1cccc2c1CC[C@@H]2Nc1cnc2cn[nH]c2c1` [Compound 97, (S)-1-((1H-pyrazolo[4,3-b]pyridin-6-yl)amino)-N-(3-cyclopropylphenyl)-2,3-dihydro-1H-indene-4-carboxamide], the IC50 was less than 50 nM.
